How the values were obtained:
Format in all cases: cell-based
[1] = system: interleukin-6; assay: Protection of UVA/UVB-irradiated keratinocytes measured by interleukin-6 production
Procedure: (§1) The inflammation of the cells and the measurement of the antiaging effect are based on the irradiation of a cell culture with a combination of UVA and UVB. […] Pure niacinamide at a concentration of 0.4 mg/mL or 1.2 mg/mL is used. For the treatments inducing illumination at 660 nm, 10 different programs are evaluated. These programs are defined in Table 1 below. [table] […] Free radicals are reactive and induce an inflammatory cascade characterized by the production of proinflammatory proteins (p53, pro-opiomelanocortin (POMC), interleukins, etc.) which can be measured in the cell supernatant. […] According to the protocol, at T+48 h, the cell supernatant is collected and the concentrations of interleukins 6 and 8 are measured and compared to the concentrations of interleukins 6 and 8 produced by cells exposed to UV and not subjected to any of the three abovementioned treatments (UV control) and to untreated and non-irradiated cells (non-irradiated control). A degree of protection of the treated cells relative to the UV control is evaluated according to the following formula: Non-irradiated cells show 100% protection and irradiated cells show 0% protection. […]

[2] = system: interleukin-8; assay: Protection of UVA/UVB-irradiated keratinocytes measured by interleukin-8 production
Procedure: as §1

[3] = system: procollagen-1; assay: Procollagen-1 production by fibroblasts exposed to UVA and UVB; details: niacinamide 0.4 mg/ml combined with illumination at 660 nm, programs 3 and 8; compared with niacinamide alone and with illumination alone; FIG. 3
Procedure: The inflammation of the cells and the measurement of the antiaging effect are based on the irradiation of a cell culture with a combination of UVA and UVB. […] Pure niacinamide at a concentration of 0.4 mg/mL or 1.2 mg/mL is used. Attention is now focused on skin aging, known as “photoaging”, induced by UV exposure. One of the parameters of cutaneous aging observed clinically is the appearance of wrinkles associated in part with a decrease in collagen production by the cells of the dermis, the fibroblasts. […] The production of procollagen-1 produced by fibroblasts is measured in the supernatants obtained from the previously defined protocol in which the cells were illuminated either without any other treatment or in combination with niacinamide at a concentration of 0.4 mg/ml, and compared with treatment with niacinamide alone at a concentration of 0.4 mg/ml. The results are shown in FIG. 3 for illumination programs 3 and 8.

[4] = niacinamide 1.2 mg/ml combined with illumination at 660 nm, all illumination programs

NC(=O)c1cccnc1 [niacinamide]
protection of the skin cells (interleukin-6) compared with illumination alone at 660 nm [1, 4]: much greater protection
protection of cells exposed to UV (interleukin-6 concentration) ([1]; niacinamide 1.2 mg/ml combined with pulsed illumination at 660 nm, all 10 programs, relative to UV-exposed cells and/or niacinamide alone, FIG. 1): beneficial effect
protection of the skin cells (interleukin-8) compared with illumination alone at 660 nm [2, 4]: much greater protection
protection of cells exposed to UV (interleukin-8 concentration) ([2]; niacinamide 1.2 mg/ml combined with pulsed illumination at 660 nm, all 10 programs, relative to UV-exposed cells and/or niacinamide alone, effects particularly visible, FIG. 2): beneficial effect
production of procollagen-1 [3]: Increased production
